These are literature values, as cited in US8110226B2, “Drug formulations having inert sealed cores” (Mylan Pharmaceuticals Inc., priority 2007, dated 2012).

For this data set the following is noted: first pKa of non-polymeric pH modifying acid.

As to `CC(O)C(=O)O` (stereo not shown) [Lactic Acid], the pKa (usually the negative logarithm of the acid dissociation constant) is reported as 4.14.
